Laboratory results reported in US10875837B2, “Inhibitors of the fibroblast growth factor receptor” (BLUEPRINT MEDICINES CORPORATION, priority 2013, dated 2020).

How the values were obtained:
wild type FGFR-4 = molecular target: T1, wild type FGFR-4 (Homo sapiens, UniProt P22455); assay: FGFR-4 wild type assay at Km (Caliper electrophoretic mobility shift); assay type: biochemical; conditions: wild type FGFR-4, 400 uM ATP, 25 C, 90 minutes; read-out: INH-FGFR4
T1 construct: purchased Carna Biosciences, Inc
T1 sequence (P22455 22-802): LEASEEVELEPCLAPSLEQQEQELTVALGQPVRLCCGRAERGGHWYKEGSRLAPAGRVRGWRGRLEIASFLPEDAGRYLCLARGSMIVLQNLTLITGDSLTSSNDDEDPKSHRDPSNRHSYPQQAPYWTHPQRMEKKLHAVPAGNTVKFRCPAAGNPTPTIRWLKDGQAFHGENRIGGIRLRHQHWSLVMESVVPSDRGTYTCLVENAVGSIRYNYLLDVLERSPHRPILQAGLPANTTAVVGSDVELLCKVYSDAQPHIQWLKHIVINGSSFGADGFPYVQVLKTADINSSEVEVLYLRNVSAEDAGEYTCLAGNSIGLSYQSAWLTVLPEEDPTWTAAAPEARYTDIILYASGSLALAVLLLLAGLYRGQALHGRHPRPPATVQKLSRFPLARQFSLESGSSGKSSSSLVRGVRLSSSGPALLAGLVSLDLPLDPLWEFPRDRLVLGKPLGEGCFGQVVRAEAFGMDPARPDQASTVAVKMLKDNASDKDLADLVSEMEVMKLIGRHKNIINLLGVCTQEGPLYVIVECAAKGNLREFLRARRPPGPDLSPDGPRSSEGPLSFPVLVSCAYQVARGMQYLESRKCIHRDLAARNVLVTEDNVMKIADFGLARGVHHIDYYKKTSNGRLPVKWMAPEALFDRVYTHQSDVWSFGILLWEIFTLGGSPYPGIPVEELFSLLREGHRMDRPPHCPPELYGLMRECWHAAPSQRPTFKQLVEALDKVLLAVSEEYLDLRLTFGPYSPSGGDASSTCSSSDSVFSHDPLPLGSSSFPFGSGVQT
Protocol: Biochemical Activity Assessment In order to assess the activity of chemical compounds against the relevant kinase of interest, the Caliper LifeSciences electrophoretic mobility shift technology platform is utilized. Fluorescently labeled substrate peptide is incubated in the presence dosed levels of compounds, a set concentration of kinase and of ATP, so that a reflective proportion of the peptide is phosphorylated. At the end of the reaction, the mix of phosphorylated (product) and non-phosphorylated (substrate) peptides are passed through the microfluidic system of the Caliper LabChip® EZ Reader II, under an applied potential difference. The presence of the phosphate group on the product peptide provides a difference in mass and charge between the product peptide and the substrate peptide, resulting in a separation of the substrate and product pools in the sample. As the pools pass the LEDS within the instrument, these pools are detected and resolved as separate peaks. The ratio between these peaks therefore reflects the activity of the chemical matter at that concentration in that well, under those conditions.
FGFR-4 wild type assay at Km: In each well of a 384-well plate, 0.5 ng/ul of wild type FGFR-4 (Carna Biosciences, Inc.) was incubated in a total of 12.5 ul of buffer (100 mM HEPES pH 7.5, 0.015% Brij 35, 10 mM MgCl2, 1 mM DTT) with 1 uM CSKtide (5-FAM-KKKKEEIYFFFG-NH2) and 400 uM ATP at 25 C for 90 minutes in the presence or absence of a dosed concentration series of compound (1% DMSO final concentration). The reaction was stopped by the addition of 70 ul of Stop buffer (100 mM HEPES pH 7.5, 0.015% Brij 35, 35 mM EDTA and 0.2% of Coating Reagent 3 (Caliper Lifesciences)). The plate was then read on a Caliper LabChip® EZ Reader II (protocol settings: −1.9 psi, upstream voltage −700, downstream voltage −3000, post sample sip 35 s).

[1] = system: pMAPK (Thr202/Tyr204) in MDA-MB453 or DMS 114 cells; assay: Detection of pMAPK (Thr202/Tyr204) using Alpha ELISA (pERK alphaLISA); assay type: cell-based; conditions: 1 hr incubation with compound; cell line not given (MDA-MB453 or DMS 114)
Protocol: Detection of pMAPK (Thr202/Tyr204) Using Alpha ELISA
MDA-MB453 or DMS 114 cells were plated in 96-well cell culture plates at a density of 1×10^5 cells or 3×10^4 cells, respectively. Cells were allowed to attach, and growth media was replaced with serum free media. Compounds were added at the indicated concentrations. Following 1 hr incubation in the presence of compound, cells were collected. For the DMS 114 cells, 100 ng/mL FGF2 was added for 10 min prior to cell collection. Cell lysates were prepared and processed according to manufacturer instruction (AlphaScreen® SureFire™ Phospho-ERK 1/2 Kit (Perkin Elmer).

Hep3B xenograft tumors = assay: Hep3B liver cancer cell subcutaneous xenograft model in nude mice; assay type: in vivo
Protocol: The effects of Compound 27 on tumor growth inhibition in Hep3B liver cancer cell subcutaneous xenograft model with different dosages were studied.
Female nude mice (Mus musculus) age 6 to 8 weeks were used. Tumor cell culture and inoculation: Hep3B cells were cultured with EMEM medium (Invitrogen, USA) supplemented with 10% FBS (Gibco, Australia). The cells were harvested in 90% confluence, and the viability was no less than 90%. Mice were implanted subcutaneously (s.c.) with 200 μL of 10×10^6 Hep3B cells in 50% Matrigel in the right flank at the beginning of the study.
Animal grouping and dosing schedule: Ten days after cell implantation, when tumors reached an average volume of 284 mm^3, […] were selected based on tumor volume and randomly assigned to 5 treatment groups (n=9). The day of randomization was denoted as day 0 and the treatment was started from then on.
Tumor volume and body weight measurements: Tumor size was measured twice per week in two dimensions using a caliper, and the volume was expressed in mm^3 using the formula: V=0.5 a× b^2 where a and b were the long and short diameters of the tumor, respectively. Body weight was measured at least twice weekly.

Structure (SMILES) | IC50 (wild type FGFR-4) | IC50 [1] | tumor response (Hep3B xenograft tumors; 100 mg/kg PO BID, Hep3B xenograft, nude mice) | tumor volume compared with vehicle group (Hep3B xenograft tumors; 30 and 100 mg/kg PO BID, Hep3B xenograft, nude mice) | body weight change (Hep3B xenograft tumors; Hep3B-bearing nude mice, only the 100 mg/kg PO BID group did not lose bodyweight) | tumor volume compared with vehicle group during the entire study (Hep3B xenograft tumors; all treated groups, 10 mg/kg to 100 mg/kg, Hep3B xenograft, nude mice) | tolerability (Hep3B xenograft tumors; current dosages and dosing schedule (10 to 100 mg/kg PO BID), nude mice) | dose dependence of tumor inhibition efficiency (Hep3B xenograft tumors; increasing dosage from 10 mg/kg to 100 mg/kg)
C=CC(=O)N[C@H]1COC[C@H]1Nc1ncc2cc(-c3c(Cl)c(OC)cc(OC)c3Cl)ccc2n1 [Compound 27, N-[(3R,4S)-4-{[6-(2,6-dichloro-3,5-dimethoxyphenyl)quinazolin-2-yl]amino}oxolan-3-yl]prop-2-enamide] | < 10 nM | < 10 nM | regressed and almost disappeared | Statistically significant reduction of tumor volumes | could alleviate body weight loss | significant reduction of tumor volume | well tolerated | enhanced the tumor inhibition efficiency
C=CC(=O)N[C@H]1CCC[C@H]1Nc1ncc2cc(-c3c(Cl)c(OC)cc(OC)c3Cl)ccc2n1 [Compound 24] | 10 to 100 nM | 10 to 100 nM |  |  |  |  |  | 
